Experimental data taken from patent US20080161288A1, “COMPOUNDS” (Pfizer Inc., priority 2006, published 2008).

Legend:
[1] = biological target: T1, porcine beta-2 adrenoceptor (Sus scrofa, UniProt Q28997); assay: cAMP assay in CHO cells transfected with the porcine beta-2 adrenoceptor; type: cell-based; details: cAMP (DiscoveRx Hit Hunter cAMP II) in CHO cells transfected with porcine beta-2 adrenoceptor, 30 minutes with compound, 0.5 mM IBMX
T1 construct: expressed in transfected cells; host or cells: CHO cells
Description: (§1) CHO cells transfected with the bovine or porcine beta-2 adrenceptors were maintained in culture in DMEM/HAMS F12+10% FBS+2 mM glutamine+500 μg/ml geneticin (for the porcine receptor the medium was supplement with 1.5 mM HEPES) at 37° C. with a 5% CO2 atmosphere.
(§2) Cells were plated into 96 well viewplates in medium and incubated overnight at 37° C. with a 5% CO2 atmosphere. The cells were pre-incubated with 0.5 mM IBMX in PBS for 30 minutes prior to incubation with increasing concentrations of experimental compound (5×10^−12 to 10^−5 M) for 30 minutes at 37° C. with a 5% CO2 atmosphere. At the end of the incubation time the compound was removed and the cells assayed for cAMP using the DiscoveRx Hit Hunter cAMP II™ assay kit.
(§3) Duplicate samples were run for each experimental compound and the data generated was analysed using EC50 analysis software in Graphpad Prism.

[2] = biological target: T2, bovine beta-2 adrenoceptor (Bos taurus, UniProt Q28044); assay: cAMP assay in CHO cells transfected with the bovine beta-2 adrenoceptor; type: cell-based; details: cAMP (DiscoveRx Hit Hunter cAMP II) in CHO cells transfected with bovine beta-2 adrenoceptor, 30 minutes with compound, 0.5 mM IBMX
T2 construct: expressed in transfected cells; host or cells: CHO cells
Description: as §1, §2, §3

T1 sequence (Q28997 whole entry): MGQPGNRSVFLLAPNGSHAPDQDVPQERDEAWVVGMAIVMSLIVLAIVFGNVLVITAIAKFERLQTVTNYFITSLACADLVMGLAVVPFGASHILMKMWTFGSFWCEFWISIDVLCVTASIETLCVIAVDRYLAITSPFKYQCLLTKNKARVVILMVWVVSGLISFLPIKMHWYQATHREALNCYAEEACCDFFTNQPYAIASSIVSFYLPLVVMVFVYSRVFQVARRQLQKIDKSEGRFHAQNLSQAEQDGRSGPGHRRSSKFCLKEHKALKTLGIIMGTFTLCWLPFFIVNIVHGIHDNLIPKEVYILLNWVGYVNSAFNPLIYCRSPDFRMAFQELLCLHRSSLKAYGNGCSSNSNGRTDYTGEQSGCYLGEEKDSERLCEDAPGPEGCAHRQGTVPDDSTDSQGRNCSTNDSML
T2 sequence (Q28044 whole entry): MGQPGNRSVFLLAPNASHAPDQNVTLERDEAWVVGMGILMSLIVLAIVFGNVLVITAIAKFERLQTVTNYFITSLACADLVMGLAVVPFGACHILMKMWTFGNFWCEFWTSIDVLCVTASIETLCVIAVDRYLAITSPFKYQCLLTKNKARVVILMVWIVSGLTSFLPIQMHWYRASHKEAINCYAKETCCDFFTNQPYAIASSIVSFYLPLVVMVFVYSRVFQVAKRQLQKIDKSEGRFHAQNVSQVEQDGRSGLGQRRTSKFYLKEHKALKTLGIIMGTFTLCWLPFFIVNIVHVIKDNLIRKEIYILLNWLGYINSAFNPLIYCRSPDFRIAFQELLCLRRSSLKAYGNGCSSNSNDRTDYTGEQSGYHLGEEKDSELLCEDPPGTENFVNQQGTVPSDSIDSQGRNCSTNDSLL

Compound | EC50 [1] | EC50 [2]
COC(=O)c1ccc(CC[C@@H](C)N[C@@H]2CCn3c(=O)[nH]c4cccc(c43)[C@H]2O)cc1 (single isomer, unassigned) [Example 70, Methyl 4-[3-{[7-hydroxy-2-oxo-1,2,4,5,6,7-hexahydroimidazo[4,5,1-jk][1]benzazepin-6-yl]amino}butyl]benzoate] | 6.2 nM | 8.2 nM
CC(CCc1ccc(C(=O)O)cc1)NC1CCn2c(=O)[nH]c3cccc(c32)C1O (single isomer, unassigned) [Example 68, 4-[3-{[7-Hydroxy-2-oxo-1,2,4,5,6,7-hexahydroimidazo[4,5,1-jk][1]benzazepin-6-yl]amino}butyl]benzoic acid] | 128 nM | 198 nM
CC(CCc1ccccc1O)N[C@@H]1CCn2c(=O)[nH]c3cccc(c32)[C@H]1O (mixture of isomers) [Example 6b, 7-Hydroxy-6-{[3-(2-hydroxyphenyl)-1-methylpropyl]amino}-4,5,6,7-tetrahydroimidazo[4,5,1-jk][1]benzazepin-2(1H)-one] | 1.4 nM | 2 nM
C[C@H](CCc1ccc(N)cc1)N[C@@H]1CCn2c(=O)[nH]c3cccc(c32)[C@H]1O (single isomer, unassigned) [Example 45, 6-{[3-(4-Aminophenyl)-1-methylpropyl]amino}-7-hydroxy-4,5,6,7-tetrahydroimidazo[4,5,1-jk][1]benzazepin-2(1H)-one] | 21 nM | 30.3 nM
C[C@H](CCc1ccccc1O)N[C@@H]1CCn2c(=O)[nH]c3cccc(c32)[C@H]1O [Example 6f, 7-Hydroxy-6-{[3-(2-hydroxyphenyl)-1-methylpropyl]amino}-4,5,6,7-tetrahydroimidazo[4,5,1-jk][1]benzazepin-2(1H)-one] | 1.9 nM | 1 nM
CC(CCc1ccccc1O)N[C@@H]1CCn2c(=O)[nH]c3cccc(c32)[C@H]1O (single isomer, unassigned) [Example 6d, 7-Hydroxy-6-{[3-(2-hydroxyphenyl)-1-methylpropyl]amino}-4,5,6,7-tetrahydroimidazo[4,5,1-jk][1]benzazepin-2(1H)-one] | 410 nM | 315 nM
CC(CCc1cccc(F)c1O)N[C@@H]1CCn2c(=O)[nH]c3cccc(c32)[C@H]1O (mixture of isomers) [Example 28b, 6-{[3-(3-Fluoro-2-hydroxyphenyl)-1-methylpropyl]amino}-7-hydroxy-4,5,6,7-tetrahydroimidazo[4,5,1-jk][1]benzazepin-2(1H)-one] | 80 nM | 55 nM
CC(CCc1ccc(C(=O)NC2CC2)cc1)NC1CCn2c(=O)[nH]c3cccc(c32)C1O (single isomer, unassigned) [Example 64, N-Cyclopropyl-4-[3-{[7-hydroxy-2-oxo-1,2,4,5,6,7-hexahydroimidazo[4,5,1-jk][1]benzazepin-6-yl]amino}butyl]benzamide] | 42.9 nM | 46.4 nM
CC(CCc1ccc2c(c1)CCO2)N[C@@H]1CCn2c(=O)[nH]c3cccc(c32)[C@H]1O (single isomer, unassigned) [Example 3a, 6-{[3-(2,3-Dihydro-1-benzofuran-5-yl)-1-methylpropyl]amino}-7-hydroxy-4,5,6,7-tetrahydroimidazo[4,5,1-jk][1]benzazepin-2(1H)-one] | 8.1 nM | 34.3 nM
CC(/C=C/c1ccccc1F)N[C@@H]1CCn2c(=O)[nH]c3cccc(c32)[C@H]1O (single isomer, unassigned) [Example 40b, 6-{[3-(2-Fluorophenyl)-1-methylprop-2-en-1-yl]amino}-7-hydroxy-4,5,6,7-tetrahydroimidazo[4,5,1-jk][1]benzazepin-2(1H)-one] | 18 nM | 33.2 nM
CC(CCc1cccc(F)c1O)N[C@@H]1CCn2c(=O)[nH]c3cccc(c32)[C@H]1O (single isomer, unassigned) [Example 28a] | 1.8 nM | 1.5 nM
CC(CCc1cccc(C(N)=O)c1)NC1CCn2c(=O)[nH]c3cccc(c32)C1O (single isomer, unassigned) [Example 66, 3-[3-{[7-Hydroxy-2-oxo-1,2,4,5,6,7-hexahydroimidazo[4,5,1-jk][1]benzazepin-6-yl]amino}butyl]benzamide] | 141 nM | 137 nM

The next lines start with the values.

EC50 [1] | EC50 [2] | Compound
34.3 nM | 179 nM | CC(CCc1ccccc1)N[C@@H]1CCn2c(=O)[nH]c3cccc(c32)[C@H]1O (single isomer, unassigned) [Example 9b, 7-Hydroxy-6-[(1-methyl-3-phenylpropyl)amino]-4,5,6,7-tetrahydroimidazo[4,5,1-jk][1]benzazepin-2(1H)-one]
3.9 nM | 4.3 nM | Cc1ccccc1CCC(C)NC1CCn2c(=O)[nH]c3cccc(c32)C1O (stereo not shown) [Example 13a, 7-hydroxy-6-{[1-Methyl-3-(2-methylphenyl)propyl]amino}-4,5,6,7-tetrahydroimidazo[4,5,1-jk][1]benzazepin-2(1H)-one]
7.1 nM | 6.1 nM | C[C@@H](CCc1cccc(NC(=O)C(F)(F)F)c1)N[C@@H]1CCn2c(=O)[nH]c3cccc(c32)[C@H]1O (single isomer, unassigned) [Example 57, 2,2,2-Trifluoro-N-{3-[3-{[7-hydroxy-2-oxo-1,2,4,5,6,7-hexahydroimidazo[4,5,1-jk][1]benzazepin-6-yl]amino}butyl]phenyl}acetamide]
38.4 nM | 7.7 nM | CC(CCc1ccc(C(=O)NCC(F)(F)F)cc1)N[C@@H]1CCn2c(=O)[nH]c3cccc(c32)[C@H]1O (single isomer, unassigned) [Example 52, 4-[-3-{[7-Hydroxy-2-oxo-1,2,4,5,6,7-hexahydroimidazo[4,5,1-jk][1]benzazepin-6-yl]amino}butyl]-N-(2,2,2-trifluoroethyl)benzamide]
2.3 nM | 7 nM | CC(CCc1ccccc1)N[C@@H]1CCn2c(=O)[nH]c3cccc(c32)[C@H]1O (single isomer, unassigned) [Example 9e, 7-Hydroxy-6-[(1-methyl-3-phenylpropyl)amino]-4,5,6,7-tetrahydroimidazo[4,5,1-jk][1]benzazepin-2(1H)-one]
108 nM | 456 nM | CC(CCc1ccc2c(c1)CCO2)N[C@@H]1CCn2c(=O)[nH]c3cccc(c32)[C@H]1O (single isomer, unassigned) [Example 3b, 6-{[3-(2,3-Dihydro-1-benzofuran-5-yl)-1-methylpropyl]amino}-7-hydroxy-4,5,6,7-tetrahydroimidazo[4,5,1-jk][1]benzazepin-2(1H)-one]
18.9 nM | 24.3 nM | CNC(=O)c1cccc(CCC(C)NC2CCn3c(=O)[nH]c4cccc(c43)C2O)c1 (single isomer, unassigned) [Example 62, 3-[3-{[7-Hydroxy-2-oxo-1,2,4,5,6,7-hexahydroimidazo[4,5,1-jk][1]benzazepin-6-yl]amino}butyl]-N-methylbenzamide]
2.9 nM | 1.6 nM | CC(CCc1cccc(Cl)c1O)N[C@@H]1CCn2c(=O)[nH]c3cccc(c32)[C@H]1O (single isomer, unassigned) [Example 5b, 6-{[3-(3-Chloro-2-hydroxyphenyl)-1-methylpropyl]amino}-7-hydroxy-4,5,6,7-tetrahydroimidazo[4,5,1-jk][1]benzazepin-2(1H)-one]
3.1 nM | 3.2 nM | COc1ccc(O)c(CCC(C)N[C@@H]2CCn3c(=O)[nH]c4cccc(c43)[C@H]2O)c1 (mixture of isomers) [Example 21, 7-Hydroxy-6-{[3-(2-hydroxy-5-methoxyphenyl)-1-methylpropyl]amino}-4,5,6,7-tetrahydroimidazo[4,5,1-jk][1]benzazepin-2(1H)-one]
3 nM | 3.3 nM | Cc1cccc(CCC(C)N[C@@H]2CCn3c(=O)[nH]c4cccc(c43)[C@H]2O)c1O (mixture of isomers) [Example 17, 7-Hydroxy-6-{[3-(2-hydroxy-3-methylphenyl)-1-methylpropyl]amino}-4,5,6,7-tetrahydroimidazo[4,5,1-jk][1]benzazepin-2(1H)-one]
11.7 nM | 23.1 nM | CC(CCc1ccc2c(c1)OCO2)NC1CCn2c(=O)[nH]c3cccc(c32)C1O (stereo not shown) [Example 12, 6-{[3-(1,3-Benzodioxol-5-yl)-1-methylpropyl]amino}-7-hydroxy-4,5,6,7-tetrahydroimidazo[4,5,1-jk][1]benzazepin-2(1H)-one]
385 nM | 428 nM | CC(CC(C)(C)c1ccccc1)N[C@@H]1CCn2c(=O)[nH]c3cccc(c32)[C@H]1O (single isomer, unassigned) [Example 14a, 6-[(1,3-Dimethyl-3-phenylbutyl)amino]-7-hydroxy-4,5,6,7-tetrahydroimidazo[4,5,1-jk][1]benzazepin-2(1H)-one]
4.2 nM | 3.4 nM | CC(CC(C)(C)c1ccccc1)N[C@@H]1CCn2c(=O)[nH]c3cccc(c32)[C@H]1O (single isomer, unassigned) [Example 14b, 6-[(1,3-Dimethyl-3-phenylbutyl)amino]-7-hydroxy-4,5,6,7-tetrahydroimidazo[4,5,1-jk][1]benzazepin-2(1H)-one]
121 nM | 298 nM | CC(CCc1ccc(O)cc1)N[C@@H]1CCn2c(=O)[nH]c3cccc(c32)[C@H]1O (single isomer, unassigned) [Example 2b, 7-Hydroxy-6-{[3-(4-hydroxyphenyl)-1-methylpropyl]amino}-4,5,6,7-tetrahydroimidazo[4,5,1-jk][1]benzazepin-2(1H)-on]
